Results as given in patent US8933089B2, “HIV inhibiting 5-amido substituted pyrimidines” (Janssen R & D Ireland, priority 2006, dated 2015).

Columns and labels:
Assay type in all cases: cell-based, HIV-1
[1] = system: HIV strain IIIB (wild type); assay: Cellular anti-HIV assay in MT4 LTR-EGFP cells, strain IIIB (wild type); selectivity index versus cytotoxicity in mock-infected MT4 CMV-EGFP cells; details: for EC50: Human immunodeficiency virus 1, 72 h, wild type HIV strain IIIB, MT4 LTR-EGFP cells, fluorescence, three days after infection, read-out: IIIB pEC50 (converted); for IIIB pSi: selectivity index = ratio of CC50 (mock-infected MT4 CMV-EGFP cells) to EC50 (IIIB), given as p value
Protocol: (§1) The antiviral activity of the compound of the present invention has been evaluated in the presence of wild type HIV and HIV mutants bearing mutations at the reverse transcriptase gene. The activity of the compounds is evaluated using a cellular assay which was performed according to the following procedure.
(§2) The human T-cell line MT4 is engineered with Green Fluorescent Protein (GFP) and an HIV-specific promoter, HIV-1 long terminal repeat (LTR). This cell line is designated MT4 LTR-EGFP, and can be used for the in vitro evaluation of anti-HIV activity of investigational compounds. In HIV-1 infected cells, the Tat protein is produced which upregulates the LTR promotor and finally leads to stimulation of the GFP reporter production, allowing to measure ongoing HIV-infection fluorometrically. Analogously, MT4 cells are engineered with GFP and the constitutional cytomegalovirus (CMV) promotor. This cell line is designated MT4 CMV-EGFP, and can be used for the in vitro evaluation of cytotoxicity of investigational compounds. In this cell line, GFP levels are comparably to those of infected MT4 LTR-EGFP cells. Cytotoxic investigational compounds reduce GFP levels of mock-infected MT4 CMV-EGFP cells.
(§3) Effective concentration values such as 50% effective concentration (EC50) can be determined and are usually expressed in μM. An EC50 value is defined as the concentration of test compound that reduces the fluorescence of HIV-infected cells by 50%. The 50% cytotoxic concentration (CC50 in μM) is defined as the concentration of test compound that reduces fluorescence of the mock-infected cells by 50%. The ratio of CC50 to EC50 is defined as the selectivity index (SI) and is an indication of the selectivity of the anti-HIV activity of the inhibitor. The ultimate monitoring of HIV-1 infection and cytotoxicity is done using a scanning microscope. Image analysis allows very sensitive detection of viral infection. Measurements are done before cell necrosis, which usually takes place about five days after infection, in particular measurements are performed three days after infection.
(§4) The columns IIIB, L100I, etc. in the table list the pEC50 values against various strains IIIB, L100I, etc.
Strain IIIB is wild type HIV strain

[2] = system: HIV strain L100I; assay: Cellular anti-HIV assay in MT4 LTR-EGFP cells, mutant L100I; details: Human immunodeficiency virus 1, read-out: L100I pEC50 (converted)
Protocol: (§5) Because of the increasing emergence of drug resistant HIV strains, the present compounds were tested for their potency against clinically isolated HIV strains harbouring several mutations. These mutations are associated with resistance to reverse transcriptase inhibitors and result in viruses that show various degrees of phenotypic cross-resistance to the currently commercially available drugs such as for instance AZT and delavirdine.
as §1, §2, §3, §4

[3] = system: HIV strain L100I + K103N; assay: Cellular anti-HIV assay in MT4 LTR-EGFP cells, mutant L100I + K103N; details: Human immunodeficiency virus 1, 72 h, read-out: L100I + K103N pEC50 (converted)
Protocol: as §5, §1, §2, §3, §4

[4] = system: HIV strain K103N; assay: Cellular anti-HIV assay in MT4 LTR-EGFP cells, mutant K103N; details: Human immunodeficiency virus 1, read-out: K103N pEC50 (converted)
Protocol: as §5, §1, §2, §3, §4

[5] = system: HIV strain K103N + Y181C; assay: Cellular anti-HIV assay in MT4 LTR-EGFP cells, mutant K103N + Y181C; details: Human immunodeficiency virus 1, 72 h, read-out: K103N + Y181C pEC50 (converted)
Protocol: as §5, §1, §2, §3, §4

[6] = system: HIV strain Y181C; assay: Cellular anti-HIV assay in MT4 LTR-EGFP cells, mutant Y181C; details: Human immunodeficiency virus 1, read-out: Y181C pEC50 (converted)
Protocol: as §5, §1, §2, §3, §4

[7] = system: HIV strain Y188L; assay: Cellular anti-HIV assay in MT4 LTR-EGFP cells, mutant Y188L; details: Human immunodeficiency virus 1, read-out: Y188L pEC50 (converted)
Protocol: as §5, §1, §2, §3, §4

[8] = system: HIV strain MDR; assay: Cellular anti-HIV assay in MT4 LTR-EGFP cells, MDR strain; details: Human immunodeficiency virus 1, read-out: MDR pEC50 (converted)
Protocol: as §5, §1, §2, §3, §4
MDR refers to a strain that contains mutations L100I, K103N, Y181C, E138G, V1791, L2214F, V278V/I and A327A/V in HIV reverse transcriptase.

SMILES | EC50 [1] [nM] | IIIB pSi [1] | EC50 [2] [nM] | EC50 [3] [nM] | EC50 [4] [nM] | EC50 [5] [nM] | EC50 [6] [nM] | EC50 [7] [nM] | EC50 [8] [nM]
Cc1cc(/C=C/C#N)cc(C)c1Nc1nc(Nc2ccc(C#N)cc2)ncc1C(=O)NCCCO [Compound 49] | 15.8 | 3.00 | 20 | 63.1 | 15.8 | 50.1 | 79.4 | 79.4 | 501
Cc1cc(/C=C/C#N)cc(C)c1Nc1nc(Nc2ccc(C#N)cc2)ncc1C(=O)NCCc1cccs1 [Compound 48] | 20 | 3.10 | 126 | 501 | 20 | 200 | 126 | 316 | 10000
Cc1cc(/C=C/C#N)cc(C)c1Nc1nc(Nc2ccc(C#N)cc2)ncc1C(=O)NCCCN(C)C [Compound 43] | 12.6 | >3.30 | 50.1 | 126 | 10 | 79.4 | 25.1 | 79.4 | 3160
CC(=O)NCCNC(=O)c1cnc(Nc2ccc(C#N)cc2)nc1Nc1c(C)cc(/C=C/C#N)cc1C [Compound 33] | 15.8 | >3.20 | 15.8 | 15.8 | 15.8 | 12.6 | 50.1 | 63.1 | 398
Cc1ccc(CNC(=O)c2cnc(Nc3ccc(C#N)cc3)nc2Nc2c(C)cc(/C=C/C#N)cc2C)o1 [Compound 24] | 15.8 | 3.00 | 25.1 | 79.4 | – | 50.1 | 25.1 | 79.4 | 5010
Cc1cc(/C=C/C#N)cc(C)c1Nc1nc(Nc2ccc(C#N)cc2)ncc1C(=O)NCC1COC(C)(C)O1 (stereo not shown) [Compound 10] | 2.51 | >4.00 | 3.98 | 39.8 | 3.16 | 63.1 | 15.8 | 20 | 501
Cc1cc(/C=C/C#N)cc(C)c1Nc1nc(Nc2ccc(C#N)cc2)ncc1C(=O)Nc1cccc(Cl)c1 [Compound 16] | 25.1 | 2.60 | 79.4 | 501 | 3.98 | 316 | 200 | 501 | 7940
CONC(=O)c1cnc(Nc2ccc(C#N)cc2)nc1Nc1c(C)cc(/C=C/C#N)cc1C [Compound 23] | 3.98 | >3.80 | 5.01 | 12.6 | – | 7.94 | 15.8 | 15.8 | 794
Cc1cc(/C=C/C#N)cc(C)c1Nc1nc(Nc2ccc(C#N)cc2)ncc1C(=O)NCCc1ccccn1 [Compound 44] | 2 | >4.10 | 12.6 | 31.6 | 2.51 | 10 | 10 | 7.94 | 1260
Cc1cc(/C=C/C#N)cc(C)c1Nc1nc(Nc2ccc(C#N)cc2)ncc1C(=O)NCCc1ccccc1 [Compound 31] | 15.8 | 3.10 | 31.6 | – | 15.8 | 50.1 | 63.1 | 79.4 | 10000
Cc1cc(/C=C/C#N)cc(C)c1Nc1nc(Nc2ccc(C#N)cc2)ncc1C(=O)NCCC#N [Compound 46] | 7.94 | >3.50 | 7.94 | 15.8 | 3.98 | 39.8 | – | 31.6 | 158
Cc1cc(/C=C/C#N)cc(C)c1Nc1nc(Nc2ccc(C#N)cc2)ncc1C(=O)NCC#N [Compound 21] | 15.8 | 2.80 | 3.98 | 15.8 | 5.01 | 15.8 | 15.8 | 15.8 | 501
Cc1cccc(CNC(=O)c2cnc(Nc3ccc(C#N)cc3)nc2Nc2c(C)cc(/C=C/C#N)cc2C)c1 [Compound 28] | 15.8 | 3.10 | 50.1 | – | 15.8 | 50.1 | 79.4 | 126 | 7940
COc1ccccc1CNC(=O)c1cnc(Nc2ccc(C#N)cc2)nc1Nc1c(C)cc(/C=C/C#N)cc1C [Compound 27] | 6.31 | >3.60 | 50.1 | – | 7.94 | 39.8 | 39.8 | 79.4 | 3160
Cc1cc(/C=C/C#N)cc(C)c1Oc1nc(Nc2ccc(C#N)cc2)ncc1C(=O)NCc1ccncc1 [Compound 58] | 2 | >4.10 | – | 316 | 6.31 | 100 | – | 158 | 3160
Cc1cc(/C=C/C#N)cc(C)c1Nc1nc(Nc2ccc(C#N)cc2)ncc1C(=O)NCCc1cccc(F)c1 [Compound 32] | 12.6 | 3.10 | 39.8 | – | 15.8 | 79.4 | 79.4 | 100 | 10000
CCOC(=O)CCCNC(=O)c1cnc(Nc2ccc(C#N)cc2)nc1Nc1c(C)cc(/C=C/C#N)cc1C [Compound 45] | 2.51 | >4.00 | 6.31 | – | 2 | 15.8 | – | 20 | 1000
